Test results from US10414763B2 (CANCER RESEARCH TECHNOLOGY LIMITED, priority 2014, dated 2019).

Biological target: T1, full-length human PKCι (Homo sapiens, UniProt P41743)
T1 construct: Recombinant, full-length human PKCι expressed in Sf21 insect cells is also commercially available; purchased EMD Millipore; host or cells: Sf21 insect cells (baculovirus)
T1 sequence (P41743 1-596): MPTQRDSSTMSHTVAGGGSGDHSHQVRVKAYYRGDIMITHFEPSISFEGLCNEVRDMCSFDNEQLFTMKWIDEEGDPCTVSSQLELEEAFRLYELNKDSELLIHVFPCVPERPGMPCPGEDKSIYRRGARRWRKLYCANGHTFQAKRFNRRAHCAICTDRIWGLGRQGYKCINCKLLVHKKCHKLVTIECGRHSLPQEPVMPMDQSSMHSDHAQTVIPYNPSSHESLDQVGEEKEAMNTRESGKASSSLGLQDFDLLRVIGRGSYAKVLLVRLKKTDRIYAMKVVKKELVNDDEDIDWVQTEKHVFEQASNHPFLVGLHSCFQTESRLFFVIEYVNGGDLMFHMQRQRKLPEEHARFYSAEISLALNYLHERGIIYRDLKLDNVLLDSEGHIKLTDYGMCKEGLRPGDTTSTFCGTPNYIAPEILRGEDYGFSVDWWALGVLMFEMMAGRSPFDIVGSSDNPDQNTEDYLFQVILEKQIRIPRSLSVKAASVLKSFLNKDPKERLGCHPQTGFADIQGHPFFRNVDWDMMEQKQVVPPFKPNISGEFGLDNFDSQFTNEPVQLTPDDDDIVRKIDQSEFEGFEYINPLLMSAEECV
Experiment: PKCι IC50 IMAP fluorescence polarisation assay, full-length enzyme, 150 μM ATP
Type: biochemical
Conditions: read-out: IC50 in IMAP assay against full length PKCi at 150 μM ATP
Procedure, shortened: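 IMAP fluorescence polarisation kinase assay: 15 pM baculovirus-expressed human PKCiota with 100 nM FAM-pseudosubstrate peptide and 150 μM ATP, 1 h at 25 °C. IMAP detection reagent then 2 h at 25 °C before FP measurement. Inhibition referenced to no-compound and no-enzyme controls for IC50 fitting.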

## CN(c1nc(-c2ccnc3[nH]c4ccccc4c23)nc2cncc(C(F)(F)F)c12)C1CC(N)C(O)C1 (stereo not shown) [Example 220, 2-Amino-4-{methyl-[2-(9H-pyrido[2,3-b]indol-4-yl)-5-trifluoromethyl-pyrido[3,4-d]pyrimidin-4-yl]-amino}-cyclopentanol]
  IC50: < 100 nM

## NC1CCN(c2nc(-c3ccnc4[nH]c5ccccc5c34)nc3cncc(C(F)(F)F)c23)C1 (stereo not shown) [Example 221, 1-[2-(9H-Pyrido[2,3-b]indol-4-yl)-5-trifluoromethyl-pyrido[3,4-d]pyrimidin-4-yl]-pyrrolidin-3-ylamine]
  IC50: 100 to 1000 nM

## Fc1ccc(Cl)c(-c2cc3c(-c4nc(N5CCNCC5)c5c(C6CC6)cncc5n4)ccnc3[nH]2)c1 [Example 222, 2-[2-(2-Chloro-5-fluoro-phenyl)-1H-pyrrolo[2,3-b]pyridin-4-yl]-5-cyclopropyl-4-piperazin-1-yl-pyrido[3,4-d]pyrimidine]
  IC50: < 100 nM

## CC1(C)CNCC[C@@H]1Nc1nc(-c2ccnc3[nH]c(C(F)(F)F)cc23)nc2cncc(C3CC3)c12 [Example 227, [5-Cyclopropyl-2-(2-trifluoromethyl-1H-pyrrolo[2,3-b]pyridin-4-yl)-pyrido[3,4-d]pyrimidin-4-yl]-((S)-3,3-dimethyl-piperidin-4-yl)-amine]
  IC50: < 100 nM

## CC1(C)CNCC[C@@H]1Nc1nc(-c2ccnc3[nH]c(C(F)(F)F)cc23)nc2cncc(C3CCC3)c12 [Example 228, [5-Cyclobutyl-2-(2-trifluoromethyl-1H-pyrrolo[2,3-b]pyridin-4-yl)-pyrido[3,4-d]pyrimidin-4-yl]-((S)-3,3-dimethyl-piperidin-4-yl)-amine]
  IC50: < 100 nM

## CC1(C)CNCC[C@@H]1Nc1nc(-c2ccnc3[nH]c(-c4cc(F)ccc4Cl)cc23)nc2cncc(C3CC3)c12 [Example 229, {2-[2-(2-Chloro-5-fluoro-phenyl)-1H-pyrrolo[2,3-b]pyridin-4-yl]-5-cyclopropyl-pyrido[3,4-d]pyrimidin-4-yl}-((S)-3,3-dimethyl-piperidin-4-yl)-amine]
  IC50: < 100 nM

## FC1CNCCC(Nc2nc(-c3ccnc4[nH]c5ccccc5c34)nc3cncc(C4CCC4)c23)C1 (stereo not shown) [Example 232, [5-Cyclobutyl-2-(9H-pyrido[2,3-b]indol-4-yl)-pyrido[3,4-d]pyrimidin-4-yl]-(6-fluoro-azepan-4-yl)-amine]
  IC50: < 100 nM

## c1ccc(-n2cnc(Nc3cc(-c4nc(N5CCC6CNCCC65)c5c(C6CC6)cncc5n4)ccn3)n2)cc1 (stereo not shown) [Example 235, [4-[5-Cyclopropyl-4-(octahydro-pyrrolo[3,2-c]pyridin-1-yl)-pyrido[3,4-d]pyrimidin-2-yl]-pyridin-2-yl}-(1-phenyl-1H-1,2,4-triazol-3-yl)-amine]
  IC50: < 100 nM

## O[C@]12CCN(c3nc(-c4ccnc(Nc5ncn(-c6ccccc6)n5)c4)nc4cncc(C5CC5)c34)[C@H]1CCNC2 [Example 236]
  IC50: < 100 nM

## c1ccc(Cn2cnc(Nc3cc(-c4nc(N5CCC6CNCCC65)c5c(C6CC6)cncc5n4)ccn3)n2)cc1 (stereo not shown) [Example 239, (1-Benzyl-1H-1,2,4-triazol-3-yl)-{4-[5-cyclopropyl-4-(octahydro-pyrrolo[3,2-c]pyridin-1-yl)-pyrido[3,4-d]pyrimidin-2-yl]-pyridin-2-yl}-amine]
  IC50: < 100 nM

## CC1(C)CNCC[C@@H]1Nc1nc(-c2ccnc(Nc3nc4ccccn4n3)c2)nc2cncc(C3CC3)c12 [Example 241, [5-Cyclopropyl-2-[2-([1,2,4]triazolo[1,5-a]pyridin-2-ylamino)-pyridin-4-yl]-pyrido[3,4-d]pyrimidin-4-yl}-((S)-3,3-dimethyl-piperidin-4-yl)-amine]
  IC50: < 100 nM

## CC1(C)CNCC[C@@H]1Nc1nc(-c2ccnc(Nc3ncn(Cc4ccccc4)n3)c2)nc2cncc(C3CC3)c12 [Example 242, {2-[2-(1-Benzyl-1H-1,2,4-triazol-3-ylamino)-pyridin-4-yl]-5-cyclopropyl-pyrido[3,4-d]pyrimidin-4-yl}-((S)-3,3-dimethyl-piperidin-4-yl)-amine]
  IC50: < 100 nM

## CC1(C)CNCC[C@@H]1Nc1nc(-c2ccnc(Nc3ncn(-c4ccccc4)n3)c2)nc2cncc(C3CC3)c12 [Example 243, {5-Cyclopropyl-2-[2-(1-phenyl-1H-1,2,4-triazol-3-ylamino)-pyridin-4-yl]-pyrido[3,4-d]pyrimidin-4-yl}-((S)-3,3-dimethyl-piperidin-4-yl)-amine]
  IC50: < 100 nM

## c1ccn2nc(Nc3cc(-c4nc(N5CCC6NCCCC65)c5c(C6CC6)cncc5n4)ccn3)nc2c1 (stereo not shown) [Example 244, {4-[5-Cyclopropyl-4-(octahydro-pyrrolo[3,2-b]pyridin-1-yl)-pyrido[3,4-d]pyrimidin-2-yl]-pyridin-2-yl}-[1,2,4]triazolo[1,5-a]pyridin-2-yl-amine]
  IC50: < 100 nM

## c1ccc(-n2cnc(Nc3cc(-c4nc(N5CCC6NCCCC65)c5c(C6CC6)cncc5n4)ccn3)n2)cc1 (stereo not shown) [Example 245, {4-[5-Cyclopropyl-4-(octahydro-pyrrolo[3,2-b]pyridin-1-yl)-pyrido[3,4-d]pyrimidin-2-yl]-pyridin-2-yl}-(1-phenyl-1H-1,2,4-triazol-3-yl)-amine]
  IC50: < 100 nM

## NC[C@@H]1CCN(c2nc(-c3ccnc4[nH]c5ccccc5c34)nc3cncc(C4CCC4)c23)C1 [Example 248, C-{(S)-1-[5-Cyclobutyl-2-(9H-pyrido[2,3-b]indol-4-yl)-pyrido[3,4-d]pyrimidin-4-yl]-pyrrolidin-3-yl}-methylamine]
  IC50: < 100 nM

## NC[C@H]1CCN(c2nc(-c3ccnc4[nH]c5ccccc5c34)nc3cncc(C4CCC4)c23)C1 [Example 249, C-{(R)-1-[5-Cyclobutyl-2-(9H-pyrido[2,3-b]indol-4-yl)-pyrido[3,4-d]pyrimidin-4-yl]-pyrrolidin-3-yl}-methylamine]
  IC50: < 100 nM

## c1ccc2c(c1)[nH]c1nccc(-c3nc(N4CCC5(CCCNC5)C4)c4c(C5CCC5)cncc4n3)c12 (stereo not shown) [Example 250, 4-[5-Cyclobutyl-4-(2,7-diaza-spiro[4.5]dec-2-yl)-pyrido[3,4-d]pyrimidin-2-yl]-9H-pyrido[2,3-b]indole]
  IC50: < 100 nM

## c1ccc2c(c1)[nH]c1nccc(-c3nc(NCC4COCCN4)c4c(C5CCC5)cncc4n3)c12 (stereo not shown) [Example 251, [5-Cyclobutyl-2-(9H-pyrido[2,3-b]indol-4-yl)-pyrido[3,4-d]pyrimidin-4-yl]-morpholin-3-ylmethyl-amine]
  IC50: 1000 to 10000 nM

## O[C@@H]1CCN(c2nc(-c3ccnc4[nH]c5ccccc5c34)nc3cncc(C4CCC4)c23)C1 [Example 252, (R)-1-[5-Cyclobutyl-2-(9H-pyrido[2,3-b]indol-4-yl)-pyrido[3,4-d]pyrimidin-4-yl]-pyrrolidin-3-ol]
  IC50: 1000 to 10000 nM

## O[C@H]1CCN(c2nc(-c3ccnc4[nH]c5ccccc5c34)nc3cncc(C4CCC4)c23)C1 [Example 253, (S)-1-[5-Cyclobutyl-2-(9H-pyrido[2,3-b]indol-4-yl)-pyrido[3,4-d]pyrimidin-4-yl]-pyrrolidin-3-ol]
  IC50: 1000 to 10000 nM

## CC1(C)CNCC[C@@H]1Nc1nc(-c2ccnc(Nc3c(F)cccc3F)c2)nc2cncc(C3CC3)c12 [Example 254, {5-Cyclopropyl-2-[2-(2,6-difluoro-phenylamino)-pyridin-4-yl]-pyrido[3,4-d]pyrimidin-4-yl}-((S)-3,3-dimethyl-piperidin-4-yl)-amine]
  IC50: < 100 nM
